Results on five compounds are retold here after patent publication US8344022B2, “Vaginal health products” (Kimberly-Clark Worldwide, Inc., priority 2004, dated 2013).

Values joined by “and” are separate entries in the source; they are usually repeats but may differ in a detail not shown here. Identical values can stand only once. “Also recorded” adds a separate entry of the source.

The subject of data set [1] is fibronectin production in human skin fibroblast cell line. Description: Fibronectin production by human skin fibroblasts (Takara EIA MK115). It is filed as cell-based. The settings on record: all concentrations tested, vs control. The protocol:
The cells were first grown in a 96-well assay system using Dulbecco's Modified Eagle's Medium (DMEM) with 10% fetal bovine serum (FBS) both purchased from Sigma Chemical Co, St. Louis, Mo. Serum-free DMEM was used as a control. […] The fibronectin assay was performed using the recommended 100 μl of the supernatant from each well of the 96-well plate. Standard buffer and stop solutions were freshly prepared before running the assay. A pre-antibody-coated 96 well plate (provided with the kit) was used to transfer the test samples and control. The plate was mixed, sealed and incubated for 1 hour at 37° C. All the wells were washed after removing sample solutions, 3 times (300 μl) with washing buffer. 100 ul of antibody-POD conjugate solution was added into the wells. Plate was mixed, sealed and incubated for one hour at 37° C. Solutions were removed and the wells were washed 3 times with washing buffer. All the wells were completely emptied at the end of washing from any liquid. 100 μl of substrate solution (hydrogen peroxide and tetramethylbenzidine in a buffered solution) was added to each well and the plate was incubated at room temperature for 15 minutes. 100 μl of stop solution (freshly prepared 1N H2SO4) was added to each well in the same order as substrate. The plate was gently mixed and absorbance was read at 450 nm.

Data set [2] has as its system human skin keratinocytes. Description: Keratinocyte proliferation, 96-well Cell Titer 96 assay. It is filed as cell-based. Particulars: 1×10^−4 to 1×10^−6 M. The protocol:
The proliferative response of these human skin keratinocytes to the test compounds was measured in a 96-well assay system using keratinocyte basal medium (KBM, Clonetics, catalog number CC-3103) as a control. […] In addition, 100 μl of vehicle KBM was added to 5 wells as control. […] The spectrophotometric absorbance of each well was read at 490 nm.

Data set [3] deals with collagen production in human skin fibroblast cell line. Description: Collagen production by human skin fibroblasts (Takara EIA MK101). Type of data set: cell-based. Particulars: 1×10^−4 to 1×10^−6 M. The protocol:
The cells were first grown in a 96-well assay system using Dulbecco's Modified Eagle's Medium (DMEM) with 10% fetal bovine serum (FBS) both purchased from Sigma Chemical Co, St. Louis, Mo. Serum-free DMEM was used as a control.
The assay was done by using the recommended 20 ul of the supernatant from each well of the 96-well plate. Standard buffer and stop solutions were freshly prepared before running the assay. 100 ul of antibody-POD conjugate solution (supplied with the kit) was added into the wells using pre antibody coated 96 well plate (supplied with the kit). 20 ul of standard and test solutions (from the other 96-well plate containing fibroblasts) were added to appropriate wells. Plate was mixed gently, sealed and incubated for three hrs. at 37° C.
After incubation each well was washed carefully four times with PBS buffer (400 ul). All the wells were completely emptied at the end of washing from any liquid.
100 ul of substrate solution (hydrogen peroxide and tetramethylbenzidine in a buffer solution, supplied with the kit) was added to each well and the plate was incubated for 15 minutes. At this point 100 ul of stop solution (freshly prepared 1N H2SO4) was added to each well in the same order as substrate. The plate was gently mixed and absorbance was read at 450 nm.

For data set [4], the system named is stratum corneum. Description: Dansyl chloride cell renewal study in healthy female volunteers. Type of data set: in vivo, human. An excerpt:
The stratum corneum renewal time is the time taken for the whole thickness of the stratum corneum to be exfoliated and replaced by new cells from the dividing epidermis. This renewal time is a fundamental indicator of skin health. […] See Jansen L H, Hojyo-Tomoko M T, Kligman A M., Improved fluorescence staining technique for estimating turnover of the human stratum corneum, Br J Dermatol., 90, 9-12, 1974; Ridge B D, Batt M D, Palmer H E, Jarrett A, The dansyl chloride technique for stratum corneum renewal as an indicator of changes in epidermal mitotic activity following topical treatment., Br J Dermatol., 118, 167-74, 1988; Grove G L, Kligman A M, Age-associated changes in human epidermal cell renewal., J Geron., 38, 137-142, 1983. The time required for the dye to disappear is therefore an indication of the turnover time of the stratum corneum. Therefore, any differences in the time required for the dye to disappear from treated and non-treated sites can be considered to be an expression of that product's ability to enhance epidermal renewal.
A dansyl chloride cell renewal study was conducted in healthy female volunteers ranging from 43-64 years of age. The study consisted of a two-week treatment period during which time the products were applied topically twice daily, including on weekend days, to the test sites. The area of application was designated, approximately 5 cm×10 cm on the upper inner arm. The other arm served as a control with no product application. […] Eight females received jasmonic acid and seven females received gibberellic acid.
The time required for a marker dye to disappear was used as the measure of cell renewal rate.

The test system of data set [5] is DTR. The experiment in a line: RT-PCR expression assay in ME-180 cells: DTR. It is filed as cell-based, human. The settings on record: 1 μM vitamin E, 24 hours, absence of serum.
Data set [6] deals with mucin-4 (MUC-4). The experiment in a line: RT-PCR expression assay in ME-180 cells: mucin-4. It is filed as cell-based, human. Particulars: for mucin-4 expression: 1 μM vitamin E, 24 hours; for MUC-4 expression: 100 nM vitamin A. The protocol: (§1) RNA Extraction from ME-180 cells. ME-180 cells were plated at 2×10^5 cells per T75 flask (15 mL total volume) and were allowed to propagate for four days. On day four, the media was removed. Fifteen mL of McCoy's SA media with or without 10% FBS containing 0 or 1 μM vitamin E were added to ME-180 cells in duplicate. ME-180 cells were incubated with these solutions for 24 hours. The media was removed, and 1500 μL of lysis buffer was added to the flasks. The cells were scraped off of the flask with a cell scraper. The RNA was isolated using the Ambion RNAqueous kit according to the manufacturer's instructions. Precipitated RNA was resuspended in DEPC-treated water with 1 μL of RNase inhibitor.
(§2) Reverse Transcription of RNA. Approximately 7 μL of RNA was incubated with 3 μL of primer at 80° C. for 10 minutes then immediately placed on ice. A master mix containing 4 μL DEPC water, 4 μL 5× reaction buffer, 1 μL dNTPs, 1 μL of RNase inhibitor, and 1 μL of reverse transcriptase was made for the reactions. Ten μL of master mix was added to the RNA/primer solution and placed at 42° C. for 2 hours. The resulting cDNA was incubated with 3.5 μL of NaOH solution at 70° C. for 10 minutes to hydrolyze the remaining RNA. Five μL of 0.5M Tris/EDTA was added to neutralize the solution. To precipitate the cDNA, 125 μL of 3M NH4OAc, 5 μL of linear polyacrylamide, and 700 μL of absolute ethanol were added. The solutions were vortexed and placed at −20° C. overnight. Samples were centrifuged at 14000 rpm at 4° C. for 30 minutes. The ethanol was removed, and the samples were allowed to dry for 10 minutes. The cDNA was resuspended in 10-12 μL of PCR grade water.
Polymerase Chain Reaction (PCR). A master mix using the Advantage 2 PCR kit (Ambion) was made for the PCR reactions containing 37-38 μL of PCR grade water, 5 μL of 10×PCR buffer, 1 μL of dNTPs, 1 μL of β-actin primers (10 μM, optional control), and 2 μL of test primers (10 μM, P2Y2, or Mucin-4 (MUC-4)). Two microliters of cDNA and […] of DNA polymerase were added. Cycling conditions were as follows: 5 min at 95° C.; 25-30 cycles (30 sec at 95° C., 1 min at 65° C., 3 min at 68° C.); 5 min at 68° C.
RNA was isolated (as described above) from ME-180 cervical cells treated with 0 nM or 100 nm vitamin A in the absence of serum. The RNA was reverse transcribed to form cDNA, and PCR techniques (as described above) were used to determine the effect of vitamin A on the expression of mucin-4 (MUC-4).

In data set [7] the test system is vascular endothelial growth factor (VEGF). The experiment in a line: RT-PCR expression assay in ME-180 cells: VEGF. Type of data set: cell-based, human.
Data set [8] deals with P2Y2 receptor gene. The experiment in a line: RT-PCR expression assay in ME-180 cells: P2Y2. It is filed as cell-based, human. The protocol: as §1, §2
Polymerase Chain Reaction (PCR). A master mix using the Advantage 2 PCR kit (Ambion) was made for the PCR reactions containing 37-38 μL of PCR grade water, 5 μL of 10×PCR buffer, 1 μL of dNTPs, 1 μL of β-actin primers (10 μM, optional control), and 2 μL of test primers (10 μM, P2Y2, or Mucin-4 (MUC-4)). Two microliters of cDNA and […] of DNA polymerase were added. […]

The subject of data set [9] is ME-180 cells. Description: ME-180 cell growth (cell counting) with vitamin E or vitamin A derivatives. The settings on record: for ME-180 cell growth: three days; for effect on ME-180 cell growth: 1 nM, 10 nM and 100 nM; for ME-180 cell growth vs negative control (FIG. 2): 1 μM or 10 μM, two days. Type of data set: cell-based, human. The protocol: Cell Culture. Human cervical epithelial cells (ME-180, ATCC) were propagated in culture at 37° C. using 5% CO2 in McCoy's 5A media (Invitrogen) with 10% heat-inactivated fetal bovine serum (Invitrogen). Vitamin E was purchased from ICN Biomedicals. Vitamin E stock solutions were made up in absolute ethanol.
ME-180 cells were incubated with vitamin E at various concentrations for three days. At 10 μM vitamin E, ME-180 cell growth was inhibited (data not shown). However, this may be due to the presence of a larger concentration of ethanol (used as a solvent for vitamin E) in the media. […] At 1 μM vitamin E, ME-180 cell growth was enhanced more than the corresponding negative control. At 100 nM vitamin E, cell growth was not effected in comparison to the negative control. Therefore, a concentration of 1 μM vitamin E was used to measure changes in RNA expression over a 24 hour period.
Cell Proliferation of ME-180 Cells. ME-180 cells were incubated with vitamin A derivatives for a period of up to 3 days. ME-180 cells were counted on each day.

Data set [10] relates to estrogen receptor alpha (ER-α). Description: RT-PCR expression assay in ME-180 cells: ER-α. It is filed as cell-based, human. The settings on record: 100 nM vitamin A, no serum, 4, 8 and 16 hours. The protocol:
Cell samples exposed to vitamin A in the absence of serum were also tested for expression of other genes that may also affect atrophic vaginitis. Using primers designed to amplify the estrogen receptor alpha (ER-α) gene, PCR was performed using the RNA samples from cells starved of serum. The ER-α product (650 bp) was visible in the control (FIG. 4, lane 2), where the template was cDNA from ME-180 cells cultured in the presence of serum. […] However, in the samples that were exposed to 100 nM vitamin A but no serum for 4, 8, and 16 hours, the […] gene was expressed (Lanes 4-6, respectively). […] Increasing the amount of estrogen receptors on epithelial cells in the genital tract may increase the probability that a receptor will be activated by estrogen.

Where [11] appears, read: 1 μM vitamin E, 24 hours, absence of serum.

As to `C=C1C[C@]23C[C@@]1(O)CC[C@H]2[C@@]12C=C[C@H](O)[C@@](C)(C(=O)O1)[C@H]2[C@@H]3C(=O)O` [gibberellic acid, Gibberellin A3], in [1], the “fibronectin production in human fibroblasts (summary in words)” value is recorded as “effective”. The “cell proliferating activity on human keratinocytes (summary in words)” value in [2] is listed as “strong cell proliferating activity”. Also, the “collagen production in human fibroblasts (summary in words)” value in data set [3] is “stimulate collagen production”. In addition, in [4] (0.25% topical twice daily, two weeks, all study volunteers), the “skin irritation or redness” value is recorded as “no visible sign of any skin irritation or redness”. In addition, the “RENEWAL, time for cell renewal of treated skin” value in data set [4] (individual patients (one value per patient #), 0.25% in hyaluronic acid (0.5% aqueous solution), topical twice daily, upper inner arm, listed as GA) is 14 Days (2×) and 12 Days (2×) and 19 Days and 17 Days and 21 Days. The “faster cell renewal rate over control” value in data set [4] (overall, 0.25% topical, vs untreated arm) was 20%. In addition, the “reduction in time required for cell renewal vs untreated control” value in data set [4] (vs volunteers' control without treatment) is listed as “about 20%”.
For vitamin E, the DTR expression entry in data set [5] is listed as “no observable difference”. Further, the mucin-4 expression result in data set [6] (absence of serum) is reported as “increases; also recorded: significantly increased”; in data set [6] (presence of serum), “no significant changes”. Also, the VEGF expression entry in data set [7] (setting [11]) is given as “no observable difference”. Besides, the P2Y2 expression entry was “no observable difference” in data set [8] (setting [11]) and “no significant changes” in data set [8] (1 μM vitamin E, 24 hours, presence of serum). In addition, the ME-180 cell growth entry is “not effected” in data set [9] (100 nM vitamin E, vs negative control); “enhanced” in data set [9] (1 μM vitamin E, vs negative control); “inhibited” in [9] (10 μM vitamin E, ethanol control also showed no growth).
With `CC1=C(/C=C/C(C)=C/C=C/C(C)=C\C(=O)O)C(C)(C)CCC1` [13-cis-retinoic acid], in [9], the “effect on ME-180 cell growth” value is on record as “little effect” and the “ME-180 cell growth vs negative control (FIG. 2)” value is “did not grow as well as the negative control”. Besides, the “toxicity to ME-180 cells” value in data set [9] (micromolar concentrations) is given as “toxic”.
For `CC1=C(/C=C/C(C)=C/C=C/C(C)=C/C(=O)O)C(C)(C)CCC1` [trans-retinoic acid], in [10], the ER-α expression result is given as “expressed; also recorded: increase”. Further, the MUC-4 expression result in [6] (absence of serum, 4 hours or 8 hours) is reported as “detectable”. Further, in [6] (absence of serum, 16 hours), the MUC-4 expression result is “decreases but is still detectable”. The VEGF expression result in data set [7] (100 nM vitamin A) is listed as “increased”. Further, the P2Y2 expression result in [8] (100 nM vitamin A, in the presence and in the absence of serum) is “increase”. For the same compound, in data set [9], the “toxicity (conclusion of the ME-180 experiments)” value is on record as “nontoxic”, the “effect on ME-180 cell growth” value is recorded as “little effect” and the “ME-180 cell growth vs negative control (FIG. 2)” value is recorded as “more cells were present”. For the same compound, in data set [9] (1 nM to 100 nM experiment), the “ME-180 cell growth compared with other agents or unexposed control” value is listed as “growing slightly faster”.
With `CC1=C(/C=C/C(C)=C\C=C\C(C)=C\C(=O)O)C(C)(C)CCC1` [9-cis-retinoic acid], in data set [9], the “effect on ME-180 cell growth” value is “little effect”.
